Assay results published in US20040142881A1, “Novel immunosuppressive agent” (TOYO SUISAN KAISHA, LTD., priority 2001, published 2004).

Tested on: responder cells (T lymphocytes)
Assay: Mixed lymphocytes reaction ([3H]-thymidine uptake of responder cells)
Assay type: cell-based, human
Conditions: test substance at 2.5, 5, 10, 25 μg/mL (Nos. 1-6) or 5, 10, 25 μg/mL (Nos. 7-12); 4 days culture with mitomycin C-treated stimulator cells; FIGS. 1 and 2
Method: Mixed lymphocytes reaction
Lymphocytes serving as stimulator cells and responder cells were prepared from blood taken from individual healthy persons.
The responder cells were further separated from the lymphocyte cells to give T lymphocytes alone.
No treatment was applied to the responder cells. 10^6/mL of the stimulator cells were treated with 10 μg/mL of mitomycin C to stop the cell growth.
Subsequently, the responder cells were inoculated in a 96-well plate, at a rate of 10^5 cells per well, and then test substances (compound Nos. 1 to 12 listed in Table 1 below) were added to a predetermined concentration. The reaction mixture was cultured at 37° C. for one hour. Thereafter, the stimulator cells were added at a rate of 10^5 cells per well. The mixture was cultured in a CO2 incubator at 37° C. for 4 days. After the incubation, the proliferation ability of the responder cells was quantified as follows. First, [^3H]-thymidine was added to the responder cells and incorporated into the nucleus of the cells by culturing the cells for 16 hours. Then, the amount of [^3H]-thymidine uptake into the cells was determined by a scintillation counter.

## CCCCCCCCCCCCCCCCCC(=O)OCC(CO[C@@H]1O[C@H](CS(=O)(=O)[O-])[C@H](O)[C@H](O)[C@H]1O)OC(=O)CCCCCCCCCCCCCCCCC.[Na+] (stereo partly drawn) [compound No. 12, 3-0-(6-deoxy-6-sulfo-β-D-galactopyranosyl)-1,2-di-0-stearoyl-glycerol sodium salt]
  immunosuppressive activity (amount of [3H]-thymidine uptake; the lower the uptake, the higher the activity): not confirmed
